Tested on: 873145-292-R-J1-PDC complex spheroid viability
Assay: Anticancer human tumor 873145-292-R-J1-PDC patient-derived renal clear cell carcinoma cell line growth inhibition [POLQ]
Details: for IC50: curve of first compound; for viability, T/C: stronger effect = lower value; active means viability on the fitted dose curve at most 10% of control; inactive means the rest
Method in brief: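 Patient-derived tumour cells were co-cultured with HUVEC and mesenchymal stem cells as multicellular spheroids at 37 °C. They were treated with POLQ inhibitors (novobiocin, ART-558, RP6685) alone or combined with other agents. Top concentrations were at or near clinical Cmax (otherwise 10 microM; SN-38 at 1 microM), decreasing in half-log steps.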

[1] = second compound 0.0316 µM, first compound 0.0316 µM
[2] = second compound 0.0316 µM, first compound 0.1 µM
[3] = second compound 0.0316 µM, first compound 0.316 µM
[4] = second compound 0.0316 µM, first compound 1 µM
[5] = second compound 0.0316 µM, first compound 3.16 µM
[6] = second compound 0.0316 µM, first compound 10 µM
[7] = second compound 0.1 µM, first compound 0.0316 µM
[8] = second compound 0.1 µM, first compound 0.1 µM
[9] = second compound 0.1 µM, first compound 0.316 µM
[10] = second compound 0.1 µM, first compound 1 µM
[11] = second compound 0.1 µM, first compound 3.16 µM
[12] = second compound 0.1 µM, first compound 10 µM
[13] = second compound 0.316 µM, first compound 0.0316 µM
[14] = second compound 0.316 µM, first compound 0.1 µM
[15] = second compound 0.316 µM, first compound 0.316 µM
[16] = second compound 0.316 µM, first compound 1 µM
[17] = second compound 0.316 µM, first compound 3.16 µM
[18] = second compound 0.316 µM, first compound 10 µM
[19] = second compound 1 µM, first compound 0.0316 µM
[20] = second compound 1 µM, first compound 0.1 µM
[21] = second compound 1 µM, first compound 0.316 µM
[22] = second compound 1 µM, first compound 1 µM
[23] = second compound 1 µM, first compound 3.16 µM
[24] = second compound 1 µM, first compound 10 µM
[25] = second compound 3.16 µM, first compound 0.0316 µM
[26] = second compound 3.16 µM, first compound 0.1 µM
[27] = second compound 3.16 µM, first compound 0.316 µM
[28] = second compound 3.16 µM, first compound 1 µM
[29] = second compound 3.16 µM, first compound 3.16 µM
[30] = second compound 3.16 µM, first compound 10 µM
[31] = second compound 10 µM, first compound 0.0316 µM
[32] = second compound 10 µM, first compound 0.1 µM
[33] = second compound 10 µM, first compound 0.316 µM
[34] = second compound 10 µM, first compound 1 µM
[35] = second compound 10 µM, first compound 3.16 µM
[36] = second compound 10 µM, first compound 10 µM
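Further: spheroids exposed to compounds for 7 days before viability readout.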
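Wherever viability, T/C is given: luminescence signal used as surrogate for viable cell content; 100% = DMSO vehicle control viability.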

Nc1ccn(C2OC(CO)C(O)C2(F)F)c(=O)n1 (stereo unspecified) + Cc1cccc(N(C)C(=O)C2C(O)CCN2c2nc(C)cc(C(F)(F)F)c2C#N)c1
5.41 µM: IC50 (second compound 3.16 µM)
4.94 µM: IC50 (second compound 0.316 µM)
> 10 µM: IC50 (second compound 0.1 µM) | IC50 (second compound 1 µM) | IC50 (second compound 10 µM)
inactive: viability, T/C [1] 67.6% | viability, T/C [2] 58.3% | viability, T/C [3] 51.4% | viability, T/C [4] 53.3% | viability, T/C [5] 53.5% | viability, T/C [6] 52.6% | viability, T/C [7] 82.3% | viability, T/C [8] 68.8% | viability, T/C [9] 51.8% | viability, T/C [10] 59.8% | viability, T/C [11] 55% | viability, T/C [12] 56.1% | viability, T/C [13] 62% | viability, T/C [14] 63.5% | viability, T/C [15] 54.6% | viability, T/C [16] 58.9% | viability, T/C [17] 54.9% | viability, T/C [18] 43.8% | viability, T/C [19] 66.9% | viability, T/C [20] 52.5% | viability, T/C [21] 52.3% | viability, T/C [22] 49.6% | viability, T/C [23] 53.1% | viability, T/C [24] 50.3% | viability, T/C [25] 72.3% | viability, T/C [26] 63.8% | viability, T/C [27] 55.4% | viability, T/C [28] 55.4% | viability, T/C [29] 56.1% | viability, T/C [30] 45.1% | viability, T/C [31] 69.2% | viability, T/C [32] 63.4% | viability, T/C [33] 62.9% | viability, T/C [34] 58.5% | viability, T/C [35] 59.7% | viability, T/C [36] 58.8%
9.95 µM: IC50 (second compound 0.0316 µM)

O=C(c1cc(Cc2n[nH]c(=O)c3ccccc23)ccc1F)N1CCN(C(=O)C2CC2)CC1 + Nc1ccc(C#CCN(C(=O)Cc2ncc(C(F)(F)F)cc2C(F)(F)F)c2ccc(F)cc2)nn1
inactive: viability, T/C [1] 98.5% | viability, T/C [2] 110% | viability, T/C [3] 101% | viability, T/C [4] 106% | viability, T/C [5] 107% | viability, T/C [6] 108% | viability, T/C [7] 112% | viability, T/C [8] 118% | viability, T/C [9] 103% | viability, T/C [10] 102% | viability, T/C [11] 98.1% | viability, T/C [12] 96.2% | viability, T/C [13] 96.4% | viability, T/C [14] 114% | viability, T/C [15] 114% | viability, T/C [16] 105% | viability, T/C [17] 93.8% | viability, T/C [18] 103% | viability, T/C [19] 98.4% | viability, T/C [20] 105% | viability, T/C [21] 114% | viability, T/C [22] 117% | viability, T/C [23] 104% | viability, T/C [24] 88.6% | viability, T/C [25] 104% | viability, T/C [26] 114% | viability, T/C [27] 115% | viability, T/C [28] 110% | viability, T/C [29] 96.2% | viability, T/C [30] 104% | viability, T/C [31] 101% | viability, T/C [32] 105% | viability, T/C [33] 106% | viability, T/C [34] 109% | viability, T/C [35] 100% | viability, T/C [36] 101%
> 10 µM: IC50 (second compound 0.0316 µM) | IC50 (second compound 0.1 µM) | IC50 (second compound 0.316 µM) | IC50 (second compound 1 µM) | IC50 (second compound 3.16 µM) | IC50 (second compound 10 µM)

Nc1ccn(C2OC(CO)C(O)C2(F)F)c(=O)n1 (stereo unspecified) + Nc1ccc(C#CCN(C(=O)Cc2ncc(C(F)(F)F)cc2C(F)(F)F)c2ccc(F)cc2)nn1
inactive: viability, T/C [1] 70.6% | viability, T/C [2] 72.4% | viability, T/C [3] 61% | viability, T/C [4] 56.2% | viability, T/C [5] 58.5% | viability, T/C [6] 55.8% | viability, T/C [7] 71.6% | viability, T/C [8] 70.2% | viability, T/C [9] 57.3% | viability, T/C [10] 54.5% | viability, T/C [11] 49.5% | viability, T/C [12] 51.7% | viability, T/C [13] 73.8% | viability, T/C [14] 80.5% | viability, T/C [15] 52.6% | viability, T/C [16] 54.8% | viability, T/C [17] 59.1% | viability, T/C [18] 53.4% | viability, T/C [19] 67.7% | viability, T/C [20] 65.8% | viability, T/C [21] 61.8% | viability, T/C [22] 70.3% | viability, T/C [23] 55.6% | viability, T/C [24] 51.7% | viability, T/C [25] 72.9% | viability, T/C [26] 66.6% | viability, T/C [27] 73.7% | viability, T/C [28] 64.2% | viability, T/C [29] 54.5% | viability, T/C [30] 63% | viability, T/C [31] 82.7% | viability, T/C [32] 67.6% | viability, T/C [33] 61.4% | viability, T/C [34] 62.1% | viability, T/C [35] 59.4% | viability, T/C [36] 67.2%
10 µM: IC50 (second compound 0.316 µM)
> 10 µM: IC50 (second compound 0.0316 µM) | IC50 (second compound 0.1 µM) | IC50 (second compound 1 µM) | IC50 (second compound 3.16 µM) | IC50 (second compound 10 µM)

— PubChem BioAssay AID1963834 (Molecular Pharmacology Branch, DTP, NCI, 2024)
